≈ marks a conversion by molar mass, not a printed value. Where two headings read alike, the source gives them in different places.
Experiments:
Proteus (indole-) = assay: In vitro activity (geometric mean MIC, serial dilution); format: cell-based; details: read-out: Geometric Mean MIC
Klebsiella sp. = assay: as above; format: cell-based; details: 12 strains, Mueller-Hinton agar, inoculum 10^4 dilution, MIC cutoff 200 mcg./ml., read-out: Geometric Mean MIC
[1] = tested on: Miscellaneous (Salmonella, Shigella, Citrobacter); assay: microbe, parasite or virus in culture; details: read-out: Geometric Mean MIC
S. aureus Smith = assay: In vivo activity (Mice, sc); details: Staphylococcus aureus, several determinations listed, read-out: PD50
From the text: (§1) |In vivo Activity of BB-[…] and Related Compounds (Mice, sc) | (PD50 (mgm./kg.)

E. coli Juhl = assay: In vivo activity (Mice, sc); details: Escherichia coli, several determinations listed, read-out: PD50
From the text: as §1

Providencia sp. = assay: In vitro activity (geometric mean MIC, serial dilution); format: cell-based; details: 5 strains, Mueller-Hinton agar, inoculum 10^4 dilution, MIC cutoff 200 mcg./ml., read-out: Geometric Mean MIC
E. coli (sensitive) = assay: as above; format: cell-based; details: Escherichia coli, read-out: Geometric Mean MIC
S. pyogenes = assay: as above; format: cell-based; details: Streptococcus pyogenes; 10 strains; Mueller-Hinton agar, inoculum 10^4 dilution; MIC cutoff 200 mcg./ml.
[2] = tested on: S. aureus (Methicillin-R); assay: as above; format: cell-based; details: Staphylococcus aureus; 15 strains; Mueller-Hinton agar, inoculum 10^4 dilution; MIC cutoff 200 mcg./ml.
[3] = tested on: Proteus (indole +, cephalosporinase +); assay: as above; format: cell-based; details: 5 strains; Mueller-Hinton agar, inoculum 10^4 dilution; MIC cutoff 200 mcg./ml.; read-out: Geometric Mean MIC
D. pneumoniae = assay: as above; format: cell-based; details: Streptococcus pneumoniae; 9 strains; Mueller-Hinton agar, inoculum 10^4 dilution; MIC cutoff 200 mcg./ml.
S. marcescens = assay: as above; format: cell-based; details: Serratia marcescens; 16 strains; Mueller-Hinton agar, inoculum 10^4 dilution; MIC cutoff 200 mcg./ml.; read-out: Geometric Mean MIC
[4] = tested on: S. aureus penicillinase+); assay: as above; format: cell-based; details: Staphylococcus aureus; 13 strains; Mueller-Hinton agar, inoculum 10^4 dilution; MIC cutoff 200 mcg./ml.; read-out: Geometric Mean MIC
[5] = tested on: E. coli (Penicillinase +); assay: as above; format: cell-based; details: Escherichia coli; 7 strains; Mueller-Hinton agar, inoculum 10^4 dilution; MIC cutoff 200 mcg./ml.; read-out: Geometric Mean MIC
S. aureus (sensitive) = assay: as above; format: cell-based; details: Staphylococcus aureus, read-out: Geometric Mean MIC
Enterobacter (sensitive) = assay: as above; format: cell-based; details: 3 strains, Mueller-Hinton agar, inoculum 10^4 dilution, MIC cutoff 200 mcg./ml., read-out: Geometric Mean MIC
[6] = tested on: Enterobacter (Cephalosporinase +); assay: as above; format: cell-based; details: 7 strains, Mueller-Hinton agar, inoculum 10^4 dilution, MIC cutoff 200 mcg./ml.
Proteus (indole +) = assay: as above; format: cell-based; details: read-out: Geometric Mean MIC
St. faecalis = assay: In vitro antibacterial activity (Steers' agar dilution MIC); format: cell-based; details: Enterococcus faecalis, table 2 (BB-S493); St. faecalis A9536; read-out: MIC
Shig. dysenteriae = assay: as above; format: cell-based; details: Shigella dysenteriae, table 2 (BB-S493); Shig dysenteriae
Pr. vulgaris = assay: as above; format: cell-based; details: Proteus vulgaris, table 2 (BB-S493), read-out: MIC
Serr. marcescens = assay: as above; format: cell-based; details: Serratia marcescens; table 2 (BB-S493); Serr. marcescens A20019; read-out: MIC
B. anthracis = assay: microbe, parasite or virus in culture; format: cell-based; details: Bacillus anthracis, table 2 (BB-S493); B. anthracis A9504
Pr. rettgeri = assay: In vitro antibacterial activity (Steers' agar dilution MIC); format: cell-based; details: Providencia rettgeri, table 2 (BB-S493); Pr. rettgeri A15167
Ps. aeruginosa = assay: as above; format: cell-based; details: table 2 (BB-S493)
Pr. morganii = assay: as above; format: cell-based; details: Morganella morganii, table 2 (BB-S493), read-out: MIC
Sal. enteritidis = assay: as above; format: cell-based; details: Salmonella enterica, table 2 (BB-S493), Sal. enteritidis A9531
Pr. mirabilis = assay: as above; format: cell-based; details: Proteus mirabilis, table 2 (BB-S493), read-out: MIC
Enterob. cloacae = assay: as above; format: cell-based; details: table 2 (BB-S493); Enterob. cloacae A9656; read-out: MIC
Sal. typhosa = assay: as above; format: cell-based; details: table 2 (BB-S493); Sal. typhosa A9498
From the text: (§2) In vitro Antibacterial Activity of BB-S493 Compared with
(§3) BB-S479 and Cefamandole (Determined by Steers' Agar Dilu-
(§4) tion Method on Mueller-Hinton Agar Plate)
(§5) In vitro antibacterial activity of BB-S 525 compared with
(§6) BB-S 479 and cefamandole (determined by Steers' agar dilution
(§7) method on Mueller-Hinton agar plate)

Shig. flexneri = assay: as above; format: cell-based; details: Shigella flexneri; table 2 (BB-S493); Shig. flexneri A9684; read-out: MIC
From the text: as §2, §3, §4, §5, §6, §7

Shig. sonnei = assay: as above; format: cell-based; details: Shigella sonnei, table 2 (BB-S493); Shig. sonnei A9516
From the text: as §2, §3, §4, §5, §6, §7

S. aureus = assay: as above; format: cell-based; details: Staphylococcus aureus, table 2 (BB-S493)
From the text: as §2, §3, §4, §5, §6, §7

E. coli = assay: as above; format: cell-based; details: Escherichia coli, read-out: MIC
From the text: as §2, §3, §4, §5, §6, §7

Kl. pneumoniae = assay: as above; format: cell-based; details: Klebsiella pneumoniae, table 2 (BB-S493)
From the text: as §2, §3, §4, §5, §6, §7

## NCc1ccsc1CC(=O)N[C@@H]1C(=O)N2C(C(=O)O)=C(CSc3ccc4nn(CC(=O)O)c(=O)n4n3)CS[C@H]12 [BB-S483, 7-(3-Aminomethyl-2-thienylacetamido)-3-(2-carboxymethyl-2,3-dihydro-s-triazolo[4,3-b]pyridazin-3-on-6-ylthiomethyl)-3-cephem-4-carboxylic Acid]
Proteus (indole-)
  MIC: 0.7 µg/mL (≈ 1.18 µM)
Klebsiella sp.
  MIC: 1.1 µg/mL (≈ 1.86 µM)
[1]
  MIC: 0.9 µg/mL (≈ 1.52 µM)
S. aureus Smith
  ED50: 0.34 mg/kg
E. coli Juhl
  ED50: 0.15 mg/kg
Providencia sp.
  MIC: 2.1 µg/mL (≈ 3.55 µM)
E. coli (sensitive)
  MIC: 0.3 µg/mL (≈ 0.507 µM)
S. pyogenes
  MIC: 0.08 µg/mL (≈ 0.135 µM)
[2]
  MIC: 48 µg/mL (≈ 81.1 µM)
[3]
  MIC: 17 µg/mL (≈ 28.7 µM)
D. pneumoniae
  MIC: 0.04 µg/mL (≈ 0.0676 µM)
S. marcescens
  MIC: 81 µg/mL (≈ 137 µM)
[4]
  MIC: 1.1 µg/mL (≈ 1.86 µM)
[5]
  MIC: 21 µg/mL (≈ 35.5 µM)
S. aureus (sensitive)
  MIC: 0.3 µg/mL (≈ 0.507 µM)
Enterobacter (sensitive)
  MIC: 1.3 µg/mL (≈ 2.2 µM)
[6]
  MIC: 5.2 µg/mL (≈ 8.79 µM)
Proteus (indole +)
  MIC: 0.4 µg/mL (≈ 0.676 µM)

## NCC1=C(CC(=O)N[C@@H]2C(=O)N3C(C(=O)O)=C(CSc4ccc5nn(CC(=O)O)c(=O)n5n4)CS[C@H]23)CC=CC1 [BB-S493, 7-[(2-Aminomethyl-1,4-cyclohexadienyl)acetamido]3-(2-N-carboxymethyl-s-triazolo[4,5-b]pyridazin-3-on-6-ylthiomethyl)-3-cephem-4-carboxylic Acid]
St. faecalis
  MIC: 100 µg/mL (≈ 170 µM)
Shig. dysenteriae
  MIC: 0.05 µg/mL (≈ 0.0851 µM)
S. aureus Smith
  ED50: 0.29 mg/kg
E. coli Juhl
  ED50: 0.27 mg/kg
Pr. vulgaris; Pr. vulgaris A9436
  MIC: 0.4 µg/mL (≈ 0.681 µM)
Pr. vulgaris; Pr. vulgaris A9699
  MIC: 6.3 µg/mL (≈ 10.7 µM)
Serr. marcescens
  MIC: 100 µg/mL (≈ 170 µM)
B. anthracis
  MIC: 0.0125 µg/mL (≈ 0.0213 µM)
Pr. rettgeri
  MIC: 0.1 µg/mL (≈ 0.17 µM)
Ps. aeruginosa; Pseudomonas aeruginosa, Ps. aeruginosa A9843, read-out: MIC
  MIC: > 100 µg/mL
Ps. aeruginosa; Ps. aerugionsa A9930
  MIC: > 100 µg/mL
Pr. morganii; Pr. morganii A9553
  MIC: > 100 µg/mL
Pr. morganii; Pr. morganii A20031
  MIC: 0.4 µg/mL (≈ 0.681 µM)
Sal. enteritidis
  MIC: 0.1 µg/mL (≈ 0.17 µM)
Pr. mirabilis; Pr. mirabilis A9554
  MIC: 0.2 µg/mL (≈ 0.34 µM)
Pr. mirabilis; Pr. mirabilis A9900
  MIC: 0.2 µg/mL (≈ 0.34 µM)
Enterob. cloacae
  MIC: 6.3 µg/mL (≈ 10.7 µM)
Sal. typhosa
  MIC: 0.1 µg/mL (≈ 0.17 µM)
Shig. flexneri
  MIC: 25 µg/mL (≈ 42.5 µM)
Shig. sonnei
  MIC: 0.05 µg/mL (≈ 0.0851 µM)
S. aureus; S. aureus A9497
  MIC: 0.2 µg/mL (≈ 0.34 µM)
S. aureus; S. aureus BX-1633 A9606
  MIC: 0.4 µg/mL (≈ 0.681 µM)
S. aureus; S. aureus Smith A9537
  MIC: 0.4 µg/mL (≈ 0.681 µM)
E. coli; ATCC8739, table 2 (BB-S493), E. coli ATCC 8739
  MIC: 0.2 µg/mL (≈ 0.34 µM)
E. coli; table 2 (BB-S493), E. coli A9660
  MIC: 0.1 µg/mL (≈ 0.17 µM)
E. coli; table 2 (BB-S493), E. coli A15147
  MIC: 6.3 µg/mL (≈ 10.7 µM)
E. coli; table 2 (BB-S493), E. coli A15810
  MIC: 0.2 µg/mL (≈ 0.34 µM)
E. coli; table 2 (BB-S493), E. coli BX-1373
  MIC: 0.4 µg/mL (≈ 0.681 µM)
E. coli; table 2 (BB-S493), E. coli Juhl A15119
  MIC: 0.2 µg/mL (≈ 0.34 µM)
E. coli; table 2 (BB-S493), E. coli NIHJ
  MIC: 0.1 µg/mL (≈ 0.17 µM)
Kl. pneumoniae; Kl. pneumoniae A9678
  MIC: 0.4 µg/mL (≈ 0.681 µM)
Kl. pneumoniae; Kl. pneumoniae A9867
  MIC: 0.2 µg/mL (≈ 0.34 µM)
Kl. pneumoniae; Kl. pneumoniae A9977
  MIC: 0.2 µg/mL (≈ 0.34 µM)
Kl. pneumoniae; Kl. pneumoniae A15130
  MIC: 0.2 µg/mL (≈ 0.34 µM)

Source: US4198506A, “2-Carboxyalkyl-2,3-dihydro-6-mercapto-s-triazolo[4,3-b]-pyridazin-3-ones” (Bristol-Myers Company, priority 1979, dated 1980)
